{
  "source": "patent US9623063B2",
  "about": "“Extracts from Ajuga reptans cell lines, their preparation and use” (I.R.B. ISTITUTO DI RICERCHE BIOTECNOLOGICHE S.r.l., priority 2005, dated 2017)",
  "key": {"[1]": {"tested_on": "tyrosinase", "test": "Tyrosinase inhibition, oxidation of L-tyrosine to L-DOPA", "format": "biochemical", "conditions": "250 μg/ml", "excerpt": "The enzyme tyrosinase catalyses the reactions leading to melanin biosynthesis from tyrosine. […] Substances inhibiting tyrosinase activity produce a clearing/bleaching effect on the skin, since they block melanin synthesis. The method used to determine the inhibition of tyrosinase activity in the oxidation reaction of L-tyrosine to L-DOPA is that described in Kim et al. […] Biol. Pharm. […] The method applied for determination of the inhibition of tyrosinase activity in the conversion of L-DOPA to DOPAquinone is that described in Masamoto et al. (Mushroom tyrosinase inhibitory activity of esculetin isolated from seeds of Euphorbia lathyris L. Biosci. Biotechnol. Biochem., 67(3), 631-634, 2003)."}, "[2]": {"biological_target": "T1, 5 alpha reductase, type I (Homo sapiens, UniProt P18405)", "T1 construct": "made in house; host or cells: genetically modified yeast", "T1 sequence (P18405 1-259)": "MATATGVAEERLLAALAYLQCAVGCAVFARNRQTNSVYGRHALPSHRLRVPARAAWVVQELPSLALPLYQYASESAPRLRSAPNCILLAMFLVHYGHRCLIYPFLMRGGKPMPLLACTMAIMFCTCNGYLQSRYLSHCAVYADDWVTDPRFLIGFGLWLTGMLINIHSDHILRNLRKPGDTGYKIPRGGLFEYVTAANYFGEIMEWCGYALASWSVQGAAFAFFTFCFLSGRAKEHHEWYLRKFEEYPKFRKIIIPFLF", "test": "Type I 5 alpha reductase inhibition ([14C] testosterone conversion)", "format": "biochemical", "method": "Determination of the 5 alpha reductase inhibitory activities by Ajuga reptans extracts in comparison to Serenoa repens extracts. Said determination has been performed using enzymes (5 alpha reductase, type I and type II) produced by genetically modified yeast. Enzyme activities have been determined in the presence of Ajuga reptans extracts, teupolioside, isoteupolioside and Serenoa repens extracts.\nType I 5 alpha reductase activity has been assayed by incubating the enzyme in 0.1 M Tris-citrate buffer (pH 7.0), containing 5 μM [^14C] radio-labelled testosterone (Amersham, Sweden) and 5 mM NADPH (Sigma) in a final volume of 5 ml. The solution thus obtained has been incubated for 1 hour at 37° C.\nIn both assays, the steroids have been extracted using 5 ml of methylene chloride. The extracts have then been dried under a stream of nitrogen and the dried residues obtained have been dissolved in 20 μl of a chloroform-methanol mixture (2:1 v/v). […] For quantification of the results, the spots have been scraped from the TLC plate and extracted with 2 ml of ethyl acetate. The extracts obtained have been analysed, using scintillation fluid, with the aid of a Wallach β-counter. The enzyme activity has been calculated from the percentage conversion (C %) of the substrate into final product: C%=[counted product/(counted substrate+product)]×100."}, "[3]": {"test": "Metal chelation, spectrophotometric (Ni2+)", "format": "physicochemical", "excerpt": "(§1) The chelating activities of Ajuga reptans extracts in relation to Fe^2+, Fe^3+, Cu^2+ and Ni^2+ metal ions has been determined by means of spectrophotometric measurements using a Shimadzu 1770 UV spectrophotometer. The activities of chelating agents depends on the association constant (equilibrium) of their reactions with the metals according to the following reaction:\n(§2) [formula] wherein Keq is the equilibrium constant equal to the ratio of concentrations at equilibrium of a complex and a product of equilibrium concentrations of metal ions and a chelator:\n(§3) The method used for determining chelating activities is well documented in the literature (Korkina L G, Afarras'er I B. Antioxidant and chelating properties of flavonoids. Adv. Pharmacol., 1997, 38:151-63). The results are expressed as Keq (M^−1) calculated for a pure phenylpropanoid. This way the chelating activity against ferrous (Fe II), ferric (Fe III), copper (Cu II) and nickel ions has been calculated."}, "[4]": {"test": "Metal chelation, spectrophotometric (Fe3+)", "format": "physicochemical", "excerpt": "as §1, §2, §3"}, "[5]": {"tested_on": "Pseudomonas aeruginosa ATCC 9027", "test": "Multiple dilution assay, growth in culture broth", "format": "cell-based", "conditions": "for T0 (CFU/ml) / T7d (CFU/ml) / T14d (CFU/ml) / T21d (CFU/ml) / T28d (CFU/ml): 30° C.; for T7d (CFU/ml): 7 days; for T14d (CFU/ml): 14 days; for T21d (CFU/ml): 21 days; for T28d (CFU/ml): 28 days", "method": "To the purpose of detecting any antimicrobial activity of the Ajuga reptans extract and the individual phenylpropanoid isoteupoloside (FPD) and teupolioside (FPA), an assay has been prepared, generally known as multiple dilution assay, with the following microbial strains: Pseudomonas aeruginosa ATCC 9027; Candida albicans ATCC 2091. The phenylpropanoids FPD, FPA and the Extract 2 of Ajuga reptans were assayed at the concentrations of 0.5 mg/ml, 2 mg/ml and 5 mg/ml. The microbial strains for the test were inoculated in culture broths (in Triptone soy broth medium) containing the substances to be assayed at the concentrations described above. In parallel with these tests, culture broths containing the microbial strain alone have been prepared (controls). The culture-broths have been incubated at 30° C. for a period of 28 days. […] A certain number of serial dilutions have been prepared for each sample in order to determine the microbial load of each culture-broth. Each dilution has been assayed in triplicate on solid medium. Then number of CFUs reported in the table is the mean of the counts performed on the triplicate assays."}, "[6]": {"test": "Fe2+-induced lipid peroxidation (thiobarbituric acid)", "format": "biochemical", "excerpt": "Ajuga reptans Extracts 1 and 2, prepared as described in examples 1 and 2, and isoteupolioside have been used to assess in vitro antioxidant action with specific oxygen radical generating systems such as the superoxide anion (O2^−), the hydroxyl radical (HO^−), the peroxynitrite radical (ONOO^−) and the inhibition of lipid peroxidation. The superoxide anion has been measured by a chemiluminescent assay based on the hypoxanthine (HPX)/xanthine oxidase (XOD) reaction using the Lumimax Superoxide Anion Detection Kit (Stratagene, La Jolla, Calif., USA) and following the manufacturer's instructions. Hydroxyl radical scavenger activity has been measured by means of the Fenton reaction for the production of hydroxyl radicals and chemiluminescent dosage (using a Victor^3 chemiluminometer, Wallac, Finland) with luminol. Peroxynitrite ions have been determined by means of dosage with a spontaneous generator of peroxynitrites (3-morpholinosidnonimine hydrochloride; SIN-1) and a stable reagent for the nitroxyl ions (2-(4-carboxyphenyl)-4,4,5,5-tetramethylimidazoline-1-oxyl-3-oxide potassium salt PTIO spin trap) then dosed by means of electron spin resonance (ESR) using a Nippon Denshi JES-FR30. […]"}, "[7]": {"test": "Hydroxyl radical scavenger activity (Fenton reaction, luminol chemiluminescence)", "format": "biochemical", "excerpt": "Ajuga reptans Extracts 1 and 2, prepared as described in examples 1 and 2, and isoteupolioside have been used to assess in vitro antioxidant action with specific oxygen radical generating systems such as the superoxide anion (O2^−), the hydroxyl radical (HO^−), the peroxynitrite radical (ONOO^−) and the inhibition of lipid peroxidation. The superoxide anion has been measured by a chemiluminescent assay based on the hypoxanthine (HPX)/xanthine oxidase (XOD) reaction using the Lumimax Superoxide Anion Detection Kit (Stratagene, La Jolla, Calif., USA) and following the manufacturer's instructions. Hydroxyl radical scavenger activity has been measured by means of the Fenton reaction for the production of hydroxyl radicals and chemiluminescent dosage (using a Victor^3 chemiluminometer, Wallac, Finland) with luminol. Peroxynitrite ions have been determined by means of dosage with a spontaneous generator of peroxynitrites (3-morpholinosidnonimine hydrochloride; SIN-1) and a stable reagent for the nitroxyl ions (2-(4-carboxyphenyl)-4,4,5,5-tetramethylimidazoline-1-oxyl-3-oxide potassium salt PTIO spin trap) then dosed by means of electron spin resonance (ESR) using a Nippon Denshi JES-FR30. Lipid peroxidation has been generated using Fe^2+ induced-oxygen reactive species, and detected using thiobarbituric acid in accordance with Buege, J A & Aust, S D: Microsomal lipid peroxidation (Methods Enzymol.\nThe Extract 1 and the Extract 2 set forth in Table 4 are derived from Ajuga reptans cell cultures comprising the phenylpropanoids at 90% and 54%, respectively. The results are expressed as the concentration inhibiting 50% of activity (IC50), means of 6 independent assays."}, "[8]": {"conditions": "calculated for a pure phenylpropanoid"}},
  "note": "Read-outs that look alike come from different tables or passages of the source.",
  "data": [
    {"smiles": "CC1OC(OC2C(O)C(COC(=O)C=Cc3ccc(O)c(O)c3)OC(OCCc3ccc(O)c(O)c3)C2O)C(OC2OC(CO)C(O)C(O)C2O)C(O)C1O", "note": "(stereo not drawn) [Isoteupolioside, isoteupolioside]", "values": [
      {"measurement": "Test L-tyrosine-DOPA inhibitory activity (%)", "setting": "[1]", "value": 30.9, "unit": "%"},
      {"measurement": "IC50", "setting": "[2]", "value": 20.3, "unit": "µM"},
      {"measurement": "Ni^2+ (Keq, M^−1)", "setting": "[3]", "value": "2631 ± 373", "unit": "M⁻¹"},
      {"measurement": "Fe^3+ (Keq, M^−1)", "setting": "[4]", "value": "420000 ± 110000", "unit": "M⁻¹"},
      {"measurement": "T0 (CFU/ml)", "setting": "[5]; 0.5 mg/ml", "value": "9.6 × 10^5 CFU/ml"},
      {"measurement": "T7d (CFU/ml)", "setting": "[5]; 0.5 mg/ml", "value": "1.2 × 10^6 CFU/ml"},
      {"measurement": "T14d (CFU/ml)", "setting": "[5]; 0.5 mg/ml", "value": "2.1 × 10^7 CFU/ml"},
      {"measurement": "T21d (CFU/ml)", "setting": "[5]; 0.5 mg/ml", "value": "2.4 × 10^4 CFU/ml"},
      {"measurement": "T28d (CFU/ml)", "setting": "[5]; 0.5 mg/ml", "value": "9.8 × 10^3 CFU/ml"},
      {"measurement": "T0 (CFU/ml)", "setting": "[5]; 2 mg/ml", "value": "5.9 × 10^5 CFU/ml"},
      {"measurement": "T7d (CFU/ml)", "setting": "[5]; 2 mg/ml", "value": "1.1 × 10^6 CFU/ml"},
      {"measurement": "T14d (CFU/ml)", "setting": "[5]; 2 mg/ml", "value": "1.9 × 10^6 CFU/ml"},
      {"measurement": "T21d (CFU/ml)", "setting": "[5]; 2 mg/ml", "value": "9.2 × 10^3 CFU/ml"},
      {"measurement": "T28d (CFU/ml)", "setting": "[5]; 2 mg/ml", "value": "9.8 × 10^3 CFU/ml"},
      {"measurement": "Inhibiting action on the growth of Pseudomonas aeruginosa ATCC 9027, in words", "setting": "[5]; 5 mg/ml", "value": "significant inhibiting action"},
      {"measurement": "T0 (CFU/ml)", "setting": "[5]; 5 mg/ml", "value": "3.6 × 10^5 CFU/ml"},
      {"measurement": "T7d (CFU/ml)", "setting": "[5]; 5 mg/ml", "value": "9.8 × 10^5 CFU/ml"},
      {"measurement": "T14d (CFU/ml)", "setting": "[5]; 5 mg/ml", "value": "1.1 × 10^5 CFU/ml"},
      {"measurement": "T21d (CFU/ml)", "setting": "[5]; 5 mg/ml", "value": "2.5 × 10^3 CFU/ml"},
      {"measurement": "T28d (CFU/ml)", "setting": "[5]; 5 mg/ml", "value": "9 × 10^1 CFU/ml"},
      {"measurement": "Lipid peroxidation (IC50)", "setting": "[6]", "value": 9.14, "unit": "µg/mL"},
      {"measurement": "Hydroxyl radial (IC50)", "setting": "[7]", "value": 1.04, "unit": "µg/mL"}
    ]},
    {"smiles": "C[C@@H]1O[C@@H](O[C@@H]2[C@@H](O)[C@H](OCCc3ccc(O)c(O)c3)O[C@H](CO)[C@H]2OC(=O)/C=C/c2ccc(O)c(O)c2)[C@H](O[C@@H]2O[C@H](CO)[C@H](O)[C@H](O)[C@H]2O)[C@H](O)[C@H]1O", "note": "[Teupolioside, teupolioside]", "values": [
      {"measurement": "Test L-tyrosine-DOPA inhibitory activity (%)", "setting": "[1]", "value": 29.6, "unit": "%"},
      {"measurement": "IC50", "setting": "[2]; first column of Table 9, pH 7.0, 5 μM testosterone, read-out: Type I 5 alpha reductase inhibition (IC50) (converted)", "value": 21.6, "unit": "µM"},
      {"measurement": "Ni^2+ (Keq, M^−1)", "setting": "[3]; [8]", "value": "2658 ± 365", "unit": "M⁻¹"},
      {"measurement": "Fe^3+ (Keq, M^−1)", "setting": "[4]; [8]", "value": "430000 ± 90000", "unit": "M⁻¹"},
      {"measurement": "Anti-microbial activity on Pseudomonas aeruginosa ATCC 9027, comparison in words", "setting": "[5]", "value": "activity similar to isoteupolioside"},
      {"measurement": "Inhibiting action on the growth of Pseudomonas aeruginosa ATCC 9027, in words", "setting": "[5]; 5 mg/ml", "value": "significant inhibiting action"},
      {"measurement": "Lipid peroxidation (IC50)", "setting": "[6]; means of 6 independent assays", "value": 9.4, "unit": "µg/mL"},
      {"measurement": "Hydroxyl radial (IC50)", "setting": "[7]; means of 6 independent assays", "value": 1.6, "unit": "µg/mL"}
    ]}
  ]
}
